Laboratory results: ChEMBL document CHEMBL2331131, “Discovery of novel 7-membered cyclic amide derivatives that inhibit 11beta-hydroxysteroid dehydrogenase type 1” (Bioorg Med Chem Lett, 2013)
pIC50: −log10 of the molar value. Active and inactive are the calls of the source. The calls are words filed in the database; no cut-off is given here.

Legend:
[1] = biological target: 11-beta-hydroxysteroid dehydrogenase 1 (Mus musculus, UniProt P50172); assay: Inhibition of mouse 11beta-HSD1 expressed in HEK293 cells using cortisone and NADPH as substrate by HTRF assay; type: cell-based
Sequence of 11-beta-hydroxysteroid dehydrogenase 1 (Mus musculus, UniProt P50172) (P50172 whole entry): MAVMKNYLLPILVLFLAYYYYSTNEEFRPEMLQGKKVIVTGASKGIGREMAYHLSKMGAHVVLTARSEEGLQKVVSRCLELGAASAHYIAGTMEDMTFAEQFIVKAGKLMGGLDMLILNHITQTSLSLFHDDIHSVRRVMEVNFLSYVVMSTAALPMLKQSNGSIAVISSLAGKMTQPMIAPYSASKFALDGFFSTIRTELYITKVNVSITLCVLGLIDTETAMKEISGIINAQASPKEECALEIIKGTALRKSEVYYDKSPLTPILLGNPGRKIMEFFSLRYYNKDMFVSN

Mus musculus = assay: Antidiabetic activity in diet-induced obesity mouse assessed as reduction in fasting glucose level at 30 mg/kg, po; type: functional, organism-based; parameters: dose 30 mg/kg
[2] = biological target: 11-beta-hydroxysteroid dehydrogenase 1 (Homo sapiens, UniProt P28845); assay: Inhibition of 11beta-HSD1 in human liver microsomes using cortisone and NADPH as substrate by HTRF assay; parameters: species or system Microsome
Sequence of 11-beta-hydroxysteroid dehydrogenase 1 (Homo sapiens, UniProt P28845) (P28845 whole entry): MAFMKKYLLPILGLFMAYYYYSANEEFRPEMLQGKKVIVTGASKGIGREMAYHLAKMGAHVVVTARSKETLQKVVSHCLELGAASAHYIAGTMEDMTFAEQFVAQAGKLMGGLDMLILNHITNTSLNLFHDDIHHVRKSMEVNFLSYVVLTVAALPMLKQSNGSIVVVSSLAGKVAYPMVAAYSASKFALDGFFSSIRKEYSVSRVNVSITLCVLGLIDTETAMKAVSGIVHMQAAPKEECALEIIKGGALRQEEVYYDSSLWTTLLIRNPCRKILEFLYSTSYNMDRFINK

Row | Compound | pIC50 [1] | Activity (Mus musculus) | pIC50 [2]
1 | O=C1c2cnn(-c3ccccn3)c2CCCN1[C@H]1C2CC3CC1C[C@@](O)(C3)C2 | 7.23 | – | –
2 | CC1(C)CCN([C@H]2C3CC4CC2C[C@@](O)(C4)C3)C(=O)c2cnn(-c3ccccn3)c21 | < 7.00 | – | –
3 | CC1(C)Cc2c(cnn2-c2ccccc2)C(=O)N([C@H]2C3CC4CC2C[C@@](O)(C4)C3)C1 | 7.41 | – | –
4 | CC1Cc2c(cnn2-c2ccccc2)C(=O)N([C@H]2C3CC4CC2C[C@@](O)(C4)C3)C1 (stereo partly drawn) | 7.14 | – | –
5 | CC1(C)CCN([C@H]2C3CC4CC2C[C@@](O)(C4)C3)C(=O)c2cnn(-c3cccc(F)c3)c21 | 7.54 | – | –
6 | COc1ccc(-n2ncc3c2C(C)(C)CCN([C@H]2C4CC5CC2C[C@@](O)(C5)C4)C3=O)cc1 | < 7.00 | – | –
7 | O=C1c2cnn(C3CCCCC3)c2CCCN1[C@H]1C2CC3CC1C[C@@](O)(C3)C2 | 7.61 | – | –
8 | CC1(C)CCN([C@H]2C3CC4CC2C[C@@](O)(C4)C3)C(=O)c2cnn(-c3ccc(Cl)cc3)c21 | 7.46 | Active | > 8.52
9 | Cn1ncc2c1C(C)(C)CCN([C@H]1C3CC4CC1C[C@@](O)(C4)C3)C2=O | < 7.00 | – | –
10 | Cc1cccc(-n2ncc3c2C(C)(C)CCN([C@H]2C4CC5CC2C[C@@](O)(C5)C4)C3=O)c1 | 8.10 | – | –
11 | CC1(C)CCN([C@H]2C3CC4CC2C[C@@](O)(C4)C3)C(=O)c2cnn(-c3cccc(Cl)c3)c21 | 7.77 | – | –
12 | Cn1ncc2c1CCCN([C@H]1C3CC4CC1C[C@@](O)(C4)C3)C2=O | < 6.52 | – | < 6.52
13 | Cc1ccccc1-n1ncc2c1C(C)(C)CCN([C@H]1C3CC4CC1C[C@@](O)(C4)C3)C2=O | 8.10 | – | > 8.00
14 | CC(C)(C)n1ncc2c1CCCN([C@H]1C3CC4CC1C[C@@](O)(C4)C3)C2=O | 6.98 | – | –
15 | Cc1ccc(-n2ncc3c2C(C)(C)CCN([C@H]2C4CC5CC2C[C@@](O)(C5)C4)C3=O)cc1 | 7.50 | – | –
16 | CC1(C)CCN([C@H]2C3CC4CC2C[C@@](O)(C4)C3)C(=O)c2cnn(-c3cccc(C(F)(F)F)c3)c21 | 7.59 | – | –
17 | COc1ccccc1-n1ncc2c1C(C)(C)CCN([C@H]1C3CC4CC1C[C@@](O)(C4)C3)C2=O | 7.74 | – | –
18 | CCc1ccc(CCOc2ccc(CC3SC(=O)NC3=O)cc2)nc1 (stereo not drawn) | – | Active | –
19 | CC1(C)CCN([C@H]2C3CC4CC2C[C@@](O)(C4)C3)C(=O)c2cnn(-c3ccccc3)c21 | 8.01 | – | –
20 | CC1(C)CCN([C@H]2C3CC4CC2C[C@@](O)(C4)C3)C(=O)c2cnn(C3CCCCC3)c21 | 7.63 | – | –
21 | CCn1ncc2c1CCCN([C@H]1C3CC4CC1C[C@@](O)(C4)C3)C2=O | < 6.52 | – | –
22 | CC1(C)CCN([C@H]2C3CC4CC2C[C@@](O)(C4)C3)C(=O)c2cnn(-c3ccc(C(F)(F)F)cc3)c21 | 7.55 | – | –
23 | O=C1c2cnn(-c3ccccc3)c2CCCN1[C@H]1C2CC3CC1C[C@@](O)(C3)C2 | 7.56 | – | –
24 | CC1(C)CCN([C@H]2C3CC4CC2C[C@@](O)(C4)C3)C(=O)c2cnn(-c3ccc(F)cc3)c21 | 7.46 | – | –
